Values of other authors in patent publication US20030180282A1, “Method of treatment of thrombotic events” (priority 2002, published 2003).
Residues, ends and D or L forms follow the SMILES beside them.

What was measured:
[1] = coadministration with thrombolytic therapy

SMILES | effect on reocclusion and recurrent ischemia [1] | incidence of death and reinfarction (IMPACT-AMI, all patients randomized, placebo 7.3%) | major hemorrhage (in vivo)
CC(=O)Oc1ccccc1C(=O)O [aspirin] | approximate halving of frequency |  | 
N=C(N)NCCCC[C@@H]1NC(=O)CCSSC[C@@H](C(N)=O)NC(=O)[C@@H]2CCCN2C(=O)[C@H](Cc2c[nH]c3ccccc23)NC(=O)[C@H](CC(=O)O)NC(=O)CNC1=O [eptifibatide] (HELM PEPTIDE1{[O=C(CCS[*:3])[*:2]].[N=C(N)NCCCC[C@H](N[*:1])C(=O)[*:2]].G.D.W.P.C.[am]}$PEPTIDE1,PEPTIDE1,1:R3-7:R3$$$V2.0) |  | 8.0% | 7.1%
